According to the supplement of paper PMC4862054:

Experiments:
Conditions in all cases: incubation time: 72 h
[1] = system: HCC1143; test: drug sensitivity score (DSS), CellTiter-Blue viability (DSS (AUC-based score)); higher = stronger viability inhibition; extreme values may be limits of the assay
Procedure: (§1)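 DSRT with the CellTiter-Blue (resazurin reduction) viability readout, fluorescence 560/590 nm, 72 h incubation. Plates were normalised to DMSO and benzethonium chloride controls. DSS is computed from the area under the fitted dose-response curve (5 or 9 concentrations).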

[2] = system: BT-474; test: as above
Procedure: as §1

[3] = system: MCF-10A; test: drug sensitivity score (DSS), CellTiter-Glo (DSS (AUC-based score)); higher = stronger drug effect (viability inhibition or cytotoxicity); extreme values may be limits of the assay
Procedure, shortened: (§2)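 The drug sensitivity score was computed from the area under the fitted dose-response curve. Breast cancer cell lines in 20 µl suspension went into 384-well plates holding compound at 5 concentrations (10-fold steps over a 10,000-fold, compound-specific range) for 72 h of incubation. CellTox Green fluorescence (485/520 nm) was read before CellTiter-Glo luminescence, the latter after 10 min at room temperature, and each plate was normalised to 0.1 % DMSO and a positive kill control.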

[4] = system: HCC1143; test: as above
Procedure, shortened: as §2

[5] = system: CAL-148; test: as above
Procedure, shortened: as §2

[6] = system: HCC1937; test: as above
Procedure, shortened: as §2

[7] = system: HDQ-P1; test: as above
Procedure, shortened: as §2

[8] = system: MFM-223; test: as above
Procedure, shortened: as §2

[9] = system: CAL-51; test: as above
Procedure, shortened: as §2

[10] = system: Hs578T; test: as above
Procedure, shortened: as §2

[11] = system: BT-474; test: as above
Procedure, shortened: as §2

[12] = system: BT-549; test: as above
Procedure, shortened: as §2

[13] = system: DU-4475; test: as above
Procedure, shortened: as §2

[14] = system: CAL-85-1; test: as above
Procedure, shortened: as §2

[15] = system: CAL-120; test: as above
Procedure, shortened: as §2

[16] = system: HCC1599; test: as above
Procedure, shortened: as §2

[17] = system: MDA-MB-468; test: as above
Procedure, shortened: as §2

[18] = system: MDA-MB-231; test: as above
Procedure, shortened: as §2

[19] = system: MDA-MB-436; test: as above
Procedure, shortened: as §2

[20] = system: SK-BR-3; test: as above
Procedure, shortened: as §2

[21] = system: MDA-MB-453; test: as above
Procedure, shortened: as §2

[22] = system: MCF-10A; test: normalised response (% of control), CellTiter-Glo; higher = more viable cells (100 = DMSO, 0 = benzethonium chloride kill control)
Procedure, shortened: (§3)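 Breast cancer cell lines were exposed for 72 h in 384-well plates to compound at 5 concentrations, 10-fold apart, covering a 10,000-fold range fixed for each compound. Plates were read for CellTox Green fluorescence and CellTiter-Glo luminescence and normalised to 0.1 % DMSO (100) and a positive kill control (0). Each value is the normalised signal at one concentration of the series.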

[23] = system: CAL-85-1; test: as above
Procedure, shortened: as §3

SMILES | drug sensitivity score [3] | drug sensitivity score [4] | drug sensitivity score [5] | drug sensitivity score [6] | drug sensitivity score [7] | drug sensitivity score [8] | drug sensitivity score [9] | drug sensitivity score [10] | drug sensitivity score [11] | drug sensitivity score [12] | drug sensitivity score [13] | drug sensitivity score [14] | drug sensitivity score [15] | drug sensitivity score [16] | drug sensitivity score [17] | drug sensitivity score [18] | drug sensitivity score [19] | drug sensitivity score [20] | normalised response [22] [%] | normalised response [23] [%] | other results
C[C@]12CC[C@@H]3c4ccc(OC(=O)N(CCCl)CCCl)cc4CC[C@H]3[C@@H]1CC[C@@H]2O [Estramustine] | 0 | 0 | 0 | 0 | 0 | 0 | 2.19 | 0 | 0 | 0 | 0 | 0 | 0 | 0 | 0.683 | 0 | 0 | 0 |  |  | drug sensitivity score [1]: 0; drug sensitivity score [2]: 0; drug sensitivity score [21]: 0
Cc1sc2c(c1C)C(c1ccc(Cl)cc1)=N[C@@H](CC(=O)OC(C)(C)C)c1nnc(C)n1-2 [(+)JQ1] (10000 nM) |  |  |  |  |  |  |  |  |  |  |  |  |  |  |  |  |  |  | 46.5 | 27.9 | 
CC1=C2C[C@H]3[C@@H](CC=C4C[C@@H](O)CC[C@@]43C)[C@@H]2CC[C@]12O[C@@H]1C[C@H](C)CN[C@H]1[C@H]2C [Cyclopamine] (10000 nM) |  |  |  |  |  |  |  |  |  |  |  |  |  |  |  |  |  |  | 108 | 104 | 
C[C@]1(O)C[C@@H](c2nc(-c3ccc4ccc(-c5ccccc5)nc4c3)c3c(N)nccn32)C1 [OSI-906] |  |  |  |  |  |  |  |  |  |  |  |  |  |  |  |  |  |  |  |  | drug sensitivity score [1]: 2.39; drug sensitivity score [2]: 1.46
CC[C@@H]1C(=O)OC[C@@H]1Cc1cncn1C [Pilocarpine] (40000 nM) |  |  |  |  |  |  |  |  |  |  |  |  |  |  |  |  |  |  | 99.1 | 94.6 | 
Cn1cc(C2=Nc3cc(NC(=O)C(N)C4CCCCC4)cc4c3C2=CNNC4=O)cn1 (centres undefined) (10000 nM) |  |  |  |  |  |  |  |  |  |  |  |  |  |  |  |  |  |  | 38.6 | 26.7 | 
CC(=O)c1c(C)c2cnc(Nc3ccc(N4CCNCC4)cn3)nc2n(C2CCCC2)c1=O |  |  |  |  |  |  |  |  |  |  |  |  |  |  |  |  |  |  |  |  | drug sensitivity score [1]: 6.22; drug sensitivity score [2]: 0
CC(=O)O[C@@]12CO[C@@H]1C[C@H](O)[C@@]1(C)C(=O)[C@H](O)C3=C(C)[C@@H](OC(=O)[C@H](O)[C@@H](NC(=O)OC(C)(C)C)c4ccccc4)C[C@@](O)([C@@H](OC(=O)c4ccccc4)[C@H]21)C3(C)C [Docetaxel] (1000 nM) |  |  |  |  |  |  |  |  |  |  |  |  |  |  |  |  |  |  | 48 | 28.9 | 
O=C1CN2Cc3c(ccc(Cl)c3Cl)N=C2N1 [Anagrelide] (10000 nM) |  |  |  |  |  |  |  |  |  |  |  |  |  |  |  |  |  |  | 105 | 94.4 | 
Cn1cc(C2=Nc3cc(NC(=O)C(N)C4CCCCC4)cc4c3C2=CNNC4=O)cn1 (centres undefined) | 2.96 | 7.81 | 0 | 4.78 | 3.25 | 12.2 | 5.76 | 12.1 | 6.46 | 14.6 | 2.68 | 13.3 | 6.28 | 20.3 | 14.4 | 7.52 | 9.88 | 19.1 |  |  | drug sensitivity score [21]: 14.3
CC(=O)N(O)CCCCCNC(=O)CCC(=O)N(O)CCCCCNC(=O)CCC(=O)N(O)CCCCCN [Deferoxamine] | 0 | 3.11 | 9.03 | 3.29 | 2.75 | 0 | 3.33 | 2.31 | 0 | 5.68 | 5.21 | 0 | 0 | 1.95 | 7.85 | 0 | 4.73 | 4.14 |  |  | drug sensitivity score [21]: 0
CC(=O)c1c(C)c2cnc(Nc3ccc(N4CCNCC4)cn3)nc2n(C2CCCC2)c1=O [Palbociclib] | 3.99 | 0 | 0 | 0 | 0 | 5.89 | 0.79 | 0.478 | 4.46 | 0 | 0 | 0 | 3.04 | 0 | 4.56 | 0 | 0 | 5.42 |  |  | drug sensitivity score [21]: 0
